{"source": "patent US20260199350A1", "about": "“FLAVONES, QUINOLINONES, QUINAZOLINONES, AND AURONES, AND USES IN CK2-MEDIATED DISEASES” (Salk Institute for Biological Studies, priority 2022, published 2026)", "key": {"tau phosphorylation": {"tested_on": "tau phosphorylation", "assay": "Tau phosphorylation in induced neurons (iNs)", "assay_type": "cell-based", "conditions": "FIG. 14"}, "CK2α1 and CK2α2": {"tested_on": "CK2α1 and CK2α2", "assay": "CK2 protein levels by Western in IL1-β-stimulated astrocytes", "assay_type": "cell-based, human", "conditions": "after 5 hours", "procedure": "Western blotting. For drug treatment assays, cells were treated with vehicle (DMSO) or 20 μM compound and stimulated with IL1B 10 ng/mL for 1 h, 6 h, or 24 h. Cells were dissociated with 1:1 Accutase:papain for 3 min at rt, pelleted for 5 min at 800 g, and washed twice with cold DPBS. […] Protein concentration was determined by BCA assay (Thermo Fisher). […] The blots were incubated with primary antibodies overnight at 4° C. in PBS containing 0.1% casein and 0.2% Tween-20. […] The membranes were washed 5× with 0.1% PBS-Tween20 (PBST) and incubated with secondary antibodies (1:20,000) for 1 h at rt in PBS with 0.1% casein, 0.2% Tween20, and 0.1% SDS. […] The blots were then washed 4× with PBST and 1× with DPBS. The blots were imaged using the Odyssey CLx imaging system and blots were analyzed on the ImageStudio software (LI-COR)."}, "IL-6 and TNFAIP2": {"tested_on": "IL-6 and TNFAIP2", "assay": "IL-6 and TNFAIP2 induction in AD patient-derived astrocytes", "assay_type": "cell-based, human", "conditions": "IL1-β"}, "[1]": {"tested_on": "human iPSC-derived microglia", "assay": "Cytokine release assay in LPS-stimulated iPSC-derived microglia", "assay_type": "cell-based", "conditions": "20 μM, panel of 36 cytokines, p<0.05", "procedure": "Cytokine release assay. […] Subsequently, media cleared of cells and debris was collected, snap-frozen and stored at −80° C. until processing with the Human Cytokine Array kit (R&D Systems, Catalog #ARY005). Briefly, media was diluted in Array Buffer 4 and incubated with a cocktail of biotinylated detection antibodies for 1 h at room temperature with rocking. The resulting immunocomplexes were incubated with nitrocellulose membranes spotted with capture antibodies overnight at 4° C. (see below for full list of targets). The membranes were washed 4× with Wash Buffer, then incubated with IRDye 800CW Streptavidin for 30 minutes at room temperature (1:2000 in Array Buffer 5, LI-COR #926-32230). The membranes were washed 4× and imaged with an Odyssey CLx instrument. Intensity for each spot was quantified with ImageStudio. Technical duplicate values for each target were averaged, and differential cytokine release by microglia exposed to LPS+vehicle versus vehicle only was determined (n=2 biological replicates, two-tailed t-tests, P<0.05)."}, "[2]": {"tested_on": "IL-6, IL-8, TNF-α, and MCP-1", "assay": "Flow cytometry assay of cytokine production in HCA", "assay_type": "cell-based, human", "conditions": "20 μM compound, 10 ng/mL IL1-β", "procedure": "Flow cytometry. For each well of HCA in a 6-well plate, 2 mL of fresh media with GolgiPLUG (BD #555029, 1:1000) and GolgiSTOP (BD #554724, 1:1000) with 20 μM compound or vehicle (DMSO) and IL1b 10 ng/mL or DPBS was added. The cells were incubated for 5 h at 37° C. Cells were collected with TrypLE and plated into a 96-well V-bottom plate for staining. The plate was centrifuged for 5 min, 1300 rpm, 4° C. to pellet cells, which were subsequently resuspended in 100 μL DPBS with 1 μL Zombie Violet (Biolegend #4231 13) and 5 μL Human Trustain FC block (Biolegend #422302) per well for 15 min at room temperature in the dark. The plate was centrifuged, supernatant was aspirated, and the cells were washed with 100 μL/well DPBS. Cells were fixed with 100 μL/well of Cytofix/Cytoperm (BD) for 20 min at 4° C. The plate was centrifuged, supernatant was aspirated, and cells were resuspended in 100 μL Permwash (BD) and incubated for 15 min at 4° C. The plate was centrifuged, supernatant was aspirated, and cells were incubated with 100 μL/well of Ab mix or isotype mix in Permwash (see below) for 20 min at 4° C., followed by centrifugation and 2× PermWash washes. The cells were resuspended in 100 μL DPBS and transferred to FACS tubes containing 200 ul of PBS (total volume per tube 300 μL) for analysis on FACS Analyzers (LSRII or Fortessa).\nA flow cytometry-based assay was used to assess the anti-inflammatory activity of several natural flavonoid compounds (FIG. 1A) and build corresponding structure-activity relationships. Primary human cerebellar astrocytes (HCA) were co-treated with 20 μM of each compound or vehicle (DMSO), 10 ng/mL IL1-β, and a protein transport inhibitor for 6 hours, and then processed for intracellular staining of pro-inflammatory cytokines IL-6, IL-8, TNF-α, and MCP-1. The presence of a C2-C3 double bond was the predominant determining factor for anti-inflammatory activity. […] There was no cytotoxicity associated with flavone treatment (FIG. 1E)."}, "CK2α1": {"molecular_target": "CK2α1 (Homo sapiens, UniProt P68400)", "sequence (P68400 whole entry)": "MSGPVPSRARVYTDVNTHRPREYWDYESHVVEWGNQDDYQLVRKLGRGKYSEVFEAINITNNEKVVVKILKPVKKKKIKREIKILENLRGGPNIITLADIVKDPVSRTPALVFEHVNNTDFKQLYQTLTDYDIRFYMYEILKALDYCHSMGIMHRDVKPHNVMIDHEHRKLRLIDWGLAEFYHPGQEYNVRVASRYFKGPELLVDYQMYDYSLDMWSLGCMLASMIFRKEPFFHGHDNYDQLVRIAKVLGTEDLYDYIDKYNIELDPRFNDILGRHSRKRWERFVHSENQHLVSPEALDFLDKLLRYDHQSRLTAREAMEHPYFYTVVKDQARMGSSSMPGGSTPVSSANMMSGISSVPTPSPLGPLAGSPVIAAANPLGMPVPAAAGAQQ", "assay": "Thermal shift assay followed by Western blotting", "assay_type": "binding", "set-up": "endogenous in cells", "conditions": "astrocyte lysates", "procedure": "Thermal shift assay and TPP. Experiments were performed as previously described (Franken et al., Nature Protocols 2015, 10:1567-1593; Reinhard et al., Nature Methods 2015, 12:1129-1131). 45 million H1-derived astrocytes were activated with 10 ng/mL IL1b for 6 h, dissociated with 1:1 Accutase/papain (3 min rt), and centrifuged at 1,800 rpm for 2 min at 4 C. The pellet was washed twice with 10 mL cold DPBS, lysed in 2.25 mL DPBS and 0.4% v/v NP-40 by freeze-thawing 3×, and clarified by centrifugation (20,000 g, 30 min, 4° C.). Protein concentration was determined by BCA assay (Bio-Rad), and lysates were diluted to 2 mg/mL. […] Reactions were incubated at rt for 30 min, after which each treated extract was divided into 10 aliquots of 95 μL in PCR strip tubes and stored on ice. Each group of treated samples was heated for 3 min at predesignated temperatures (3×10 temperatures), then kept for 3 min at rt before ultracentrifugation (20 min at 4° C., 100,000 g) in 200 μL polycarbonate tubes (Beckman Coulter #343775). Designated temperatures were 37, 41.1, 43.6, 46.9, 50, 53.7, 56, 59.5, 63, and 67° C. A small aliquot (5 μL) of supernatant was saved for Western blotting, and the rest was snap frozen at −80 C and submitted for LC-MS/MS."}, "NF-κB": {"tested_on": "NF-κB", "assay": "NF-κB-Luciferase reporter assay in THP-1 NF-κB-Lucia cells", "assay_type": "cell-based, human", "procedure": "NF-κB-Luciferase reporter assay. THP-1 NF-κB-Lucia cells were plated at 10,000 cells per well with 10 ng/mL PMA. Three days later, media was removed and replaced with media containing LPS (1 μg/mL) and dilution series of compounds in flat bottom clear 96-well plates for 24 hours. A day later, 20 μL of media was transferred to a 96-well white plate and 50 μL of QuantiLuc Gold reagent (InvivoGen rep-qlcg5) was added per well; plate was mixed in the plate reader and luminescence was read using a Promega GloMax Reader."}}, "note": "Entries after “also recorded” stand apart in the source; their conditions may differ."}
{"smiles": "COc1cc(-c2cc(=O)c3c(O)cc(O)cc3o2)ccc1O", "note": "[CHR, Chrysoeriol]", "values": [{"measurement": "Tau phosphorylation", "setting": "tau phosphorylation", "value": "reduces"}, {"measurement": "CK2α1 and CK2α2 levels", "setting": "CK2α1 and CK2α2", "value": "reduced to baseline"}, {"measurement": "Hyperinflammatory phenotype (IL-6 and TNFAIP2 induction)", "setting": "IL-6 and TNFAIP2", "value": "mitigated"}, {"measurement": "Release of LPS-induced pro-inflammatory cytokines", "setting": "[1]", "value": "significantly blocked"}, {"measurement": "IL1-β-induced IL-6, IL-8, TNF-α, MCP-1 cytokine upregulation", "setting": "[2]", "value": "active; also recorded: strong suppressive activity"}, {"measurement": "Thermal stabilization of CK2α1", "setting": "CK2α1", "value": "dose-dependently stabilized"}, {"measurement": "IC50", "setting": "NF-κB; Homo sapiens, THP-1, FIG. 5B, read-out: IC50 in THP-1 monocyte NF-κB-Luciferase reporter cells", "value": "< 4", "unit": "µM"}, {"measurement": "SAR summary: activity in NF-κB reporter assay and for CK2 kinase inhibition", "setting": "NF-κB; at 20 μM, FIG. 5A, some values sourced from Baier et al. (2017) and Lolli et al. (2012)", "value": "active"}]}
